In patent US9783511B2, “Carbamate benzoxazine propionic acids and acid derivatives for modulation of RORgamma activity and the treatment of disease” (Merck Sharp & Dohme Corp., priority 2013, dated 2017) one finds IC50 data, which are given here for 18 molecules.

In this experiment the target is human RORgammaT-Ligand Binding Domain (LBD) (Homo sapiens (Human), UniProt P51449). In words: RORγ-Ligand Binding Domain TR-FRET Assay (co-activator peptide SRC1_2 recruitment). In kind it is biochemical. The settings on record: HIS-tagged RORγ-LBD 3 nM, biotinylated SRC1 LXXLL peptide 100 nM, incubated overnight at 4° C., 665 nm/615 nm ratio. The text has this: Activation of RORgammaT activity can be measured using, e.g., a biochemical TR-FRET assay. In such an assay, interaction of cofactor-derived peptides with human RORgammaT-Ligand Binding Domain (LBD) can be measured.
Sequence of human RORgammaT-Ligand Binding Domain (LBD) (P51449 269-508): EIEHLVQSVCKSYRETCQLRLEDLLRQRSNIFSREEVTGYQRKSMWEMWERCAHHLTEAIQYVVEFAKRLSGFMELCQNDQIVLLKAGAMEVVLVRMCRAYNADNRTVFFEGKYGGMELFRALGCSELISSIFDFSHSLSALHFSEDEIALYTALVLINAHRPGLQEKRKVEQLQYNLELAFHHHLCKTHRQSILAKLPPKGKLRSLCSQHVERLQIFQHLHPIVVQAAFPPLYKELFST
To identify novel antagonists of RORgammaT, an assay was developed which employs the interaction of RORgammaT with its co-activator peptide SRC1_2. […] The RORγ-Ligand Binding Domain TR-FRET Assay was run according to the following protocol.
HIS-tagged RORγ-LBD protein was recombinantly expressed in Escherichia coli. The RORγ-LBD protein was purified by Ni^2+-affinity resin. Purified protein was then diluted in assay buffer (50 mM Tris pH 7.0, 50 mM KCl, 1 mM EDTA, 0.1 mM DTT, 100 μg/mL bovine serum albumin, delipidated) to obtain a RORγ-LBD final concentration of 3 nM.
Compounds to be tested were injected to the 384-well assay plate using Acoustic Droplet Ejection technology by Echo 550 liquid handler (Labcyte, CA).
A general note: TR-FRET usually uses a lanthanide donor and a delayed reading to cut background.

On to `CC(C)(OC(=O)Nc1ccc2c(c1)N(S(=O)(=O)c1cccc(C(F)(F)F)c1)C[C@H](CC(O)C(=O)O)O2)C(F)(F)F` (mixture of isomers) [Example 15, (R and S)-2-hydroxy-3-((S)-6-((((1,1,1-trifluoro-2-methylpropan-2-yl)oxy)carbonyl)amino)-4-((3-(trifluoromethyl)phenyl)sulfonyl)-3,4-dihydro-2H-benzo[b][1,4]oxazin-2-yl)propanoic acid], for which the IC50 is 18.1 nM. As to `COc1cc(S(=O)(=O)N2C[C@H](CC(O)C(=O)O)Oc3ccc(NC(=O)OC(C)(C)C(F)(F)F)cc32)ccc1F` (mixture of isomers) [Example 18F, (R and S)-3-((S)-4-((4-fluoro-3-methoxyphenyl)sulfonyl)-6-((((1,1,1-trifluoro-2-methylpropan-2-yl)oxy)carbonyl)amino)-3,4-dihydro-2H-benzo[b][1,4]oxazin-2-yl)-2-hydroxypropanoic acid], the IC50 was 9.39 nM. Consider `Cc1nn(C(F)F)cc1S(=O)(=O)N1C[C@H](C[C@@H](C)C(=O)O)Oc2ccc(NC(=O)OC(C)(C)C(F)(F)F)cc21` (single isomer, unassigned) [Example 6BG, (R or S)-3-((S)-4-((1-(difluoromethyl)-3-methyl-1H-pyrazol-4-yl)sulfonyl)-6-((((1,1,1-trifluoro-2-methylpropan-2-yl)oxy)carbonyl)amino)-3,4-dihydro-2H-benzo[b][1,4]oxazin-2-yl)-2-methylpropanoic acid], for which the concentration for half-maximal inhibition (IC50) is 13.3 nM. Turning to `CCOc1sc(C2CC2)nc1S(=O)(=O)N1C[C@H](C[C@@H](C)C(=O)O)Oc2ccc(NC(=O)OC(C)(C)C(F)(F)F)cc21` (single isomer, unassigned) [Example 6BP, (R or S)-3-((S)-4-((2-cyclopropyl-5-ethoxythiazol-4-yl)sulfonyl)-6-((((1,1,1-trifluoro-2-methylpropan-2-yl)oxy)carbonyl)amino)-3,4-dihydro-2H-benzo[b][1,4]oxazin-2-yl)-2-methylpropanoic acid], the IC50 came to 26.6 nM. The value for `CCc1nc(S(=O)(=O)N2C[C@H](C[C@@H](C)C(=O)O)Oc3ccc(NC(=O)OC(C)(C)C(F)(F)F)cc32)c(OCC(F)(F)F)s1` (single isomer, unassigned) [Example 6BR, (R or S)-3-((S)-4-((2-ethyl-5-(2,2,2-trifluoroethoxy)thiazol-4-yl)sulfonyl)-6-((((1,1,1-trifluoro-2-methylpropan-2-yl)oxy)carbonyl)amino)-3,4-dihydro-2H-benzo[b][1,4]oxazin-2-yl)-2-methylpropanoic acid] was 12.3 nM; that for `CCOc1sc(CC)nc1S(=O)(=O)N1C[C@H](C[C@@H](C)C(=O)O)Oc2ccc(NC(=O)OC(C)(C)C(F)(F)F)cc21` (single isomer, unassigned) [Example 6Bo, (R or S)-3-((S)-4-((5-ethoxy-2-ethylthiazol-4-yl)sulfonyl)-6-((((1,1,1-trifluoro-2-methylpropan-2-yl)oxy)carbonyl)amino)-3,4-dihydro-2H-benzo[b][1,4]oxazin-2-yl)-2-methylpropanoic acid] was 11.9 nM. On to `Cc1cccc(S(=O)(=O)N2C[C@H](C[C@@H](C)C(=O)O)Oc3ccc(NC(=O)OC(C)(C)C(F)(F)F)cc32)c1` (single isomer, unassigned) [Example 6CK, (S or R)-2-methyl-3-((S)-4-(m-tolylsulfonyl)-6-((((1,1,1-trifluoro-2-methylpropan-2-yl)oxy)carbonyl)amino)-3,4-dihydro-2H-benzo[b][1,4]oxazin-2-yl)propanoic acid], for which the IC50 was 14.5 nM.

`C[C@H](C[C@H]1CN(S(=O)(=O)c2cccc(OC(F)F)c2)c2cc(NC(=O)OC(C)(C)C(F)(F)F)ccc2O1)C(=O)O` (single isomer, unassigned) [Example 6CM, (S or R)-3-((S)-4-((3-(difluoromethoxy)phenyl)sulfonyl)-6-((((1,1,1-trifluoro-2-methylpropan-2-yl)oxy)carbonyl)amino)-3,4-dihydro-2H-benzo[b][1,4]oxazin-2-yl)-2-methylpropanoic acid]: the IC50 was determined as 5.25 nM.

As to `Cc1cccc(S(=O)(=O)N2C[C@H](C[C@H](C)C(=O)O)Oc3ccc(NC(=O)OC(C)(C)C(F)(F)F)cc32)c1` (single isomer, unassigned) [Example 6CP, (S or R)-2-methyl-3-((S)-4-(m-tolylsulfonyl)-6-((((1,1,1-trifluoro-2-methylpropan-2-yl)oxy)carbonyl)amino)-3,4-dihydro-2H-benzo[b][1,4]oxazin-2-yl)propanoic acid], the IC50 amounted to 11.6 nM. With `C[C@@H](C[C@H]1CN(S(=O)(=O)c2cccc(C3CC3)c2)c2cc(NC(=O)OC(C)(C)C(F)(F)F)ccc2O1)C(=O)O` (single isomer, unassigned) [Example 6CU, (S or R)-3-((S)-4-((3-cyclopropylphenyl)sulfonyl)-6-((((1,1,1-trifluoro-2-methylpropan-2-yl)oxy)carbonyl)amino)-3,4-dihydro-2H-benzo[b][1,4]oxazin-2-yl)-2-methylpropanoic acid], the IC50 is 17.8 nM. In the case of `C[C@H](C[C@H]1CN(S(=O)(=O)c2cccc(C3CC3)c2)c2cc(NC(=O)OC(C)(C)C(F)(F)F)ccc2O1)C(=O)O` (single isomer, unassigned) [Example 6CW, (R or S)-3-((S)-4-((3-cyclopropylphenyl)sulfonyl)-6-((((1,1,1-trifluoro-2-methylpropan-2-yl)oxy)carbonyl)amino)-3,4-dihydro-2H-benzo[b][1,4]oxazin-2-yl)-2-methylpropanoic acid], the IC50 was 10.2 nM. In the case of `C[C@H](C[C@H]1CN(S(=O)(=O)c2ccnc(C(F)(F)F)c2)c2cc(NC(=O)OC(C)(C)C(F)(F)F)ccc2O1)C(=O)O` (single isomer, unassigned) [Example 6CZ, (R or S)-2-methyl-3-((S)-6-((((1,1,1-trifluoro-2-methylpropan-2-yl)oxy)carbonyl)amino)-4-((2-(trifluoromethyl)pyridin-4-yl)sulfonyl)-3,4-dihydro-2H-benzo[b][1,4]oxazin-2-yl)propanoic acid], the IC50 turned out to be 15.3 nM. With `C[C@@H](C[C@H]1CN(S(=O)(=O)c2cccc(OC(F)F)c2)c2cc(NC(=O)OC(C)(C)C(F)(F)F)ccc2O1)C(=O)O` (single isomer, unassigned) [Example 6Co, (S or R)-3-((S)-4-((3-(difluoromethoxy)phenyl)sulfonyl)-6-((((1,1,1-trifluoro-2-methylpropan-2-yl)oxy)carbonyl)amino)-3,4-dihydro-2H-benzo[b][1,4]oxazin-2-yl)-2-methylpropanoic acid], the IC50 was 8.38 nM. In the case of `C[C@@H](C[C@H]1CN(S(=O)(=O)c2ccnc(C(F)(F)F)c2)c2cc(NC(=O)OC(C)(C)C(F)(F)F)ccc2O1)C(=O)O` (single isomer, unassigned) [Example 6DA, (R or S)-2-methyl-3-((S)-6-((((1,1,1-trifluoro-2-methylpropan-2-yl)oxy)carbonyl)amino)-4-((2-(trifluoromethyl)pyridin-4-yl)sulfonyl)-3,4-dihydro-2H-benzo[b][1,4]oxazin-2-yl)propanoic acid], the IC50 came out at 14.9 nM. Then `C[C@H](C[C@H]1CN(S(=O)(=O)c2ccnc(C3CC3)c2)c2cc(NC(=O)OC(C)(C)C(F)(F)F)ccc2O1)C(=O)O` (single isomer, unassigned) [Example 6DB, (R or S)-3-((S)-4-((2-cyclopropylpyridin-4-yl)sulfonyl)-6-((((1,1,1-trifluoro-2-methylpropan-2-yl)oxy)carbonyl)amino)-3,4-dihydro-2H-benzo[b][1,4]oxazin-2-yl)-2-methylpropanoic acid], with 11.5 nM; and `C[C@@H](C[C@H]1CN(S(=O)(=O)c2ccnc(C3CC3)c2)c2cc(NC(=O)OC(C)(C)C(F)(F)F)ccc2O1)C(=O)O` (single isomer, unassigned) [Example 6DC, (R or S)-3-((S)-4-((2-cyclopropylpyridin-4-yl)sulfonyl)-6-((((1,1,1-trifluoro-2-methylpropan-2-yl)oxy)carbonyl)amino)-3,4-dihydro-2H-benzo[b][1,4]oxazin-2-yl)-2-methylpropanoic acid], with 16.2 nM; and `C[C@H](C[C@H]1CN(S(=O)(=O)c2cn(C(F)F)nc2Cl)c2cc(NC(=O)OC(C)(C)C(F)(F)F)ccc2O1)C(=O)O` (single isomer, unassigned) [Example 6DD, (R or S)-3-((S)-4-((3-chloro-1-(difluoromethyl)-1H-pyrazol-4-yl)sulfonyl)-6-((((1,1,1-trifluoro-2-methylpropan-2-yl)oxy)carbonyl)amino)-3,4-dihydro-2H-benzo[b][1,4]oxazin-2-yl)-2-methylpropanoic acid], with 23.6 nM. For the molecule `C[C@@H](C[C@H]1CN(S(=O)(=O)c2cn(C(F)F)nc2Cl)c2cc(NC(=O)OC(C)(C)C(F)(F)F)ccc2O1)C(=O)O` (single isomer, unassigned) [Example 6DE, (R or S)-3-((S)-4-((3-chloro-1-(difluoromethyl)-1H-pyrazol-4-yl)sulfonyl)-6-((((1,1,1-trifluoro-2-methylpropan-2-yl)oxy)carbonyl)amino)-3,4-dihydro-2H-benzo[b][1,4]oxazin-2-yl)-2-methylpropanoic acid], the half-inhibitory concentration (IC50) was found to be 40.3 nM.

What is called IC50 is the concentration that inhibits the measured activity by half.
